Where two headings read alike, the source gives them in different places.
How the values were obtained:
HbS = HbS (Homo sapiens, UniProt P68871+P69905, E7V); assay: 96-well oxygen dissociation assay (ODA); format: biochemical
[1] = molecular target: T1, whole blood from homozygous sickle cell patients, Hb(S) (Homo sapiens, UniProt P68871+P69905, E7V); assay: Reverse Hemox assay (oxygen equilibrium curves), whole blood; format: cell-based; details: for Whole Blood OEC (delta p50%): [Hb] 1 mM
T1 construct: Oxygen Equilibrium Curves (OEC) of whole blood before and after treatment; from tissue; host or cells: whole blood (or washed red blood cells) of homozygous sickle cell patients
Procedure: (§1) Oxygen Equilibrium Curves (OEC) of whole blood before and after treatment with different concentrations of compounds 12, 22 and 23 were performed as follows using a HEMOX analyzer (TCS Scientific, New Hope, Pa.). Blood samples from homozygous sickle cell patients were obtained though the Hemoglobinopathy Center at Children's Hospital Oakland Research Institute (CHORI) with Institutional Review Board approval. The hematocrit was adjusted to 20% using autologous plasma and the blood samples were incubated for 1 hour at 37° C. in absence or presence of compounds. 100 μl of these samples were added to 5 mL of Hemox butter (30 mM TES, 130 mM NaCl, 5 mM KCl, pH=7.4) at 37° C. and then transferred to the Hemox sample chamber. The samples were saturated with oxygen by flushing with compressed air for 10 minutes. The samples were then flushed with pure nitrogen and the respective absorbances of oxy- and deoxy-Hb are recorded as a function of the solution pO2. The oxygen equilibrium data were then fitted to the Hill Model to obtain values for p50. The deoxygenation curves for both whole blood alone (control) and whole blood in the presence of the compound were collected with the TCS software.
Results: Table 3 below lists the delta p50% values where “+” indicates a delta p50% of between 0 and 29, “++” indicates a delta p50% of between 30 and 50, and “+++” indicates a delta p50% of 50 or greater.
(§2) Reverse hemox assay was performed essentially as described in Example 2, above, using either washed red blood cells or whole blood.

purified HbS = molecular target: T2, purified HbS (Homo sapiens, UniProt P68871+P69905, E7V); assay: HbS polymerization assay; format: biochemical; details: for Polymerization DTcmpd-DTHbS: [HbS] 50 μM
T2 construct: HbS is purified by the CRO VIRUSYS, from blood obtained from homozygous sickle cell patients; tissue VIRUSYS (CRO that did the purification); host or cells: blood of homozygous sickle cell patients
Procedure: Polymerization assays are carried out in vitro using purified HbS exchanged into 1.8 M potassium phosphate buffer at pH 7.4. Using a slightly modified protocol (Antonini and Brunori, 1971). HbS is purified by the CRO VIRUSYS, from blood obtained from homozygous sickle cell patients through the Hemoglobinopathy Center at Children's Hospital Oakland Research Institute (CHORI) with Institutional Review Board approval. Compounds are prepared in 100% DMSO and a desired amount is added to 50 μM of purified HbS at a final DMSO concentration of 0.3%. Final potassium phosphate concentration is adjusted to 1.8 M using a combination of 2.5 M potassium phosphate stock solution and water at pH 7.4. The reaction mixture is incubated for an hour at 37° C. and then transferred into a 24-well plate for deoxygenation in a glove box containing 99.5% nitrogen and 0.5% oxygen. The 24-well plate is not covered and incubated at 4° C. on a plate cooler inside the glove box for one and a half hours. Fifty μl of the reaction mixture is transferred into a 96-well plate and the absorbance at 700 nm is measured every minute for one hour at 37° C. in a plate reader located inside the glove box. A plot of the absorbance against time is fitted using a Boltzman sigmoidal fit and the delay time (from zero to time at half Vmax) is measured. To compare and rank compounds, delay times are expressed as percent delay (% DT), which is defined as the difference in delay times for HbS/compound and HbS alone multiplied by 100 and divided by the delay time for HbS alone.
The ability of 5-HMF and compound 12 to delay HbS polymerization was evaluated as described in Example 2, above. Purified HbS (50 μM) was pre-incubated with 25 μM, 50 μM, or 100 μM of 5-HMF or compound 12, then passively de-oxygenated at 4° C. in 1.8 M potassium phosphate. Polymerization was induced via temperature jump from 4° C. to 37° C. Polymerization was quantified based on turbidity of the HbS solution under continued hypoxia.

[2] = Mouse intravenous pharmacokinetics and blood/plasma partitioning; format: in vivo; details: mice; for blood plasma ratio: whole blood and plasma, iv
Description: The ability of compound 12 to partition preferentially in red blood cells has also been confirmed in mice treated intravenously. […] Analogous to the measurements in rats, the volume of distribution (Vss) was low in mice (0.10). Thus, compound 12 is not expected to broadly distribute into extravascular space in mice.

washed red blood cells = assay: Reverse Hemox assay (OEC), washed red blood cells; format: cell-based, human
Procedure: as §1, §2
Results: Table 4, below, indicates the percent change in p50 (delta p50%) for each compound tested. In the washed red blood cells (RBCs), 5-HMF, compound 5, and compound 12 (1 mM compound) gave p50 of 20, 9 and 7 mm Hg, respectively, compared to the control red blood cells (delta p50=30 mm Hg). To determine the effects of plasma proteins on compound activity. OECs were measured in whole blood from sickle cell disease patients. 5-HMF, compound 5, compound 9, and compound 12 gave p50 of 27, 18, 11 and 6 mm Hg, respectively, compared to the control blood p50 of 30 mm Hg.

[3] = ratio of compound 12 to Hb of 1:3

Hb in ODA (Δoxy state) (HbS; [Hb] 3 μM, [cmp] 1 μM): 16
improvement in oxygen affinity for Hb (HbS; [3]): two-fold
more oxygenated Hb present (HbS; [3]): 16%
Reverse Hemox delta p50% (class) ([1]; 1 mM compound, whole blood, hematocrit 20%): +++ (a delta p50% of 50 or greater)
Reverse Hemox delta p50% ([1]; 1 mM compound, whole blood, hematocrit 20%, 1 hour 37° C.): 79.83%
Whole Blood OEC (delta p50%) ([1]; [cmp] 1 mM): 80%
Whole Blood OEC (delta p50%) ([1]; [cmp] 3 mM): >80%
p50 ([1]; whole blood from sickle cell disease patients, control blood p50 30 mm Hg): 6 mm Hg
Polymerization % DT (class) (purified HbS; 75 μM compound, 50 μM HbS): †† (activity >80% but ≦120%)
Polymerization % DT (percent delay) (purified HbS; 75 μM compound, 50 μM HbS): 108.56%
Polymerization DTcmpd-DTHbS (purified HbS; [Cmpd] 25 μM): 3.9 min
Polymerization DTcmpd-DTHbS (purified HbS; [Cmpd] 50 μM): 12.8 min
Polymerization DTcmpd-DTHbS (purified HbS; [Cmpd] 100 μM): 22.9 min
Vd ([2]; in vivo, read-out: volume of distribution (Vss)): 0.1 L/kg
blood plasma ratio ([2]; read-out: ratio of blood/plasma at overall exposure): 30
blood plasma ratio ([2]; read-out: ratio of blood/plasma at peak in vivo concentration): 15.4
SMILES: CC(C)n1nccc1-c1ncccc1COc1cccc(O)c1C=O [Compound 12, 2-hydroxy-6-[[2-(2-propan-2-ylpyrazol-3-yl)pyridin-3-yl]methoxy] benzaldehyde]
HbS polymerization delay (in words) (purified HbS; HbS 50 μM, 25, 50 or 100 μM compound): delayed HbS polymerization in a dose-dependent manner
Washed RBC OEC (delta p50%) (washed red blood cells; [Hb] 1 mM, [cmp] 1 mM): 76%
p50 (washed red blood cells; washed RBCs, 1 mM compound, control 30 mm Hg): 7 mm Hg

Source: patent US20160038474A1, “COMPOSITIONS AND METHODS FOR THE MODULATION OF HEMOGLOBIN (S)” (GLOBAL BLOOD THERAPEUTICS, INC., priority 2013, published 2016)
